Where two headings read alike, the source gives them in different places.
Assays:
MM1S cells [1] = test: Daratumumab-mediated MM1S tumor cell clearance in co-culture with conditioned THP-1 macrophages (ADCP assay); assay type: cell-based; conditions: for daratumumab-mediated tumor cell killing by macrophages (% specific MM1S cell clearance): THP-1 conditioned 48 hours with media of treated MM1S, 1 μg/ml daratumumab, E:T 2:1, 18 hours, FIG. 4
Protocol: FIG. 4 illustrates the level of MM1S tumor cell clearance in co-culture of MM1S cells and THP-1 macrophages. Prior to initiation of co-cultures, THP-1 cells were cultured 48 hours in conditioned media generated from untreated MM1S tumor cells or MM1S cells treated with lenalidomide (FIG. 4A), bortezomib (FIG. 4B) or cyclophosphamide (CTX) alone or in combination with bortezomib or lenalidomide (FIG. 4C). MM1S cells were stained with calcein and incubated with daratumumab or IgG1 isotype control ([…]) and co-culture with THP-1 cells at a 2:1 effector to target ratio for 18 hours. Cell frequency was determined using the Accuri C6 (Right). The % specific cell clearance was calculated by the following formula:
100−100*(The frequency of calcein stained MM1S cells in the presence of 1 μg/ml daratumumab/
The frequency of calcein stained MM1S cells in the presence of Isotype control).
Co-cultures of MM1S and THP-1 cells were incubated in the presence of cytochalasin to assess if daratumumab mediated MM1S killing by ADCP. […] FIG. 5 illustrates the level of daratumumab-mediated tumor cell clearance in co-cultures of MM1S and THP-1 cells. Prior to initiation of co-cultures, THP-1 cells were cultured 48 hours in conditioned media generated from untreated MM1S tumor cells or MM1S cells treated with lenalidomide (FIG. 5A) or cyclophosphamide alone or in combination with lenalidomide or bortezomib (FIG. 5B) in the absence or presence of 1 μg/ml cytochalasin D. The % specific cell clearance was calculated by the following formula: […]

MM1S cells [2] = assay type: cell-based, human; conditions: for proportion of tumour cell clearance accounted for by ADCP: ± 1 μg/ml cytochalasin D, n=1
Protocol: Antibody Dependant cellular phagocytosis (ADCP): To determine the number of macrophages per sample, 50 μl of 5×10^6 cells/mL concentration of MC isolated from PB and BM were diluted using 150 μl FACS buffer. Based on forward and side scatter profiles, the total number of macrophages were determined by timed acquisition events per unit volume using an Accuri™ C6. […] Cells were washed, incubated with mouse anti-human CD45-APC (BD Biosciences, San Jose, CA) and mouse anti-human CD14-PerCP-Cy5.5 (Miltenyi Biotech, Cologne, Germany) for 15 mins, then washed and re-suspended in 200 μl FACS buffer for sample acquisition. Macrophage and MM1S cells were gated using CFSE+ and CD45+CD14+ cells gating. Cell frequency was determined using the BD Canto IITM flow cytometer. Antibody-dependent phagocytosis was assessed and quanti?ed as follows: Phagocytosis was quanti?ed by frequency of remaining target cells (CFSE positive) with and without Ab treatment or isotype control. […] ADCP mediated clearance was calculated using the following formula: 100-100*(Proportion of live Dara-treated MM1S cells in untreated macrophage co-culture/ Proportion of live Dara-treated MM1S cells in CytoD conditioned macrophage co-culture).

[3] = tested on: CD47 on CD45-CD19-CD138+ plasma cells; conditions: 24 hour treatment vs baseline
Protocol: Ethics: Pre-screened newly diagnosed MM patients were enrolled into the sub-clinical study by informed consent according to predetermined protocols and standard operating procedures for sample draw and included extraction of relevant details from medical records.
Samples Isolation: Isolation of mononuclear cells (MC) from PB and BM aspirates were performed by layering 3mL EDTA-anti-coagulated sample over 3mL endotoxin-free Ficoll Plaque density-gradient medium (GE Healthcare, Little Chalfont, United Kingdom) in 15-mL Falcon tubes (Sarstedt, North Rhine-Westphalia, Niimbrecht, Germany), and centrifuged at 420 relative centrifugal force (RCF) for 22 minutes at 4° C. without braking. The “buffy coat” layer was isolated and washed twice with Fluorescence-activated cell sorting (FACS buffer) [2% foetal calf serum (Lonza, Basel, Switzerland), PBS and 0.05% NaN3 (Sigma-Aldrich, St. Louis, Mo., USA)]. […] Cells were counted using a haemocytometer and 5×10^5 cells per sample were stained for phenotypic characterisation by flow cytometry
Characterisation Studies: Plasma cells: Cell surface expression of CD38, CD47, CD319 (SLAMF7), B-cell maturation antigen (BCMA), MIC A/B, Programmed death-ligand (PDL) 1, PDL2, CD54, CD11a and CD48 were analysed on CD45-CD19-CD138+ Plasma cells by flow cytometry. […]

[4] = tested on: CD38 expression on multiple myeloma cells (MM1S); test: Flow cytometry of cell surface CD38 expression on treated MM1S cells; conditions: 48 hours after treatment, CTX 2.5, 5, 10 μM, CTX 10 μM with Bort 1 nM or Len 1 μM, FIG. 1
Protocol: (§1) Cells: The multiple myeloma cell line, MM1S, was sub-cultured in RPMI 1640 media supplemented with 10% FBS and 50 IU/ml penicillin and 50 μg/ml Streptomycin. […] THP-1 cells were sub-cultured in RPMI 1640 media supplemented with 10% FBS and 50 IU/ml Penicillin and 50 μg/ml streptomycin. Cells were plated at a cell density of 2×10^5 cells/ml for experiments. […] Fresh media was added and the cells were further incubated for 24 hours after collecting the conditioned media. […] All antibodies were purchased from BD Pharmingen™ unless otherwise stated. Cells were stained with anti-CD38 (APC-conjugated) and anti-CD47 (FITC-conjugated, eBiosciences) antibodies and the level of expression of CD38 and CD47 was assessed. Sytox advanced reagents were used to assess cell death. Cells were analysed by flow cytometry. Sytox positive cells were excluded from analysis. The mean fluorescent intensity was calculated by expressing the fluorescent intensity of each sample relative to the cell size. […] FcγRI and FcγRlla/b expression was assessed by flow cytometry 48 hours later using anti-FcγRI (APC-conjugated) and anti- FcγRIIa/b (PE-conjugated) antibodies. The mean fluorescent intensity was calculated by expressing the fluorescent intensity of each sample relative to the cell size and subtracting the values for the isotype control/unstained samples.

[5] = tested on: CD47 expression on multiple myeloma cells (MM1S); test: Flow cytometry of cell surface CD47 expression on treated MM1S cells; conditions: 24 hours after treatment, CTX 2.5, 5, 10 μM, CTX 10 μM with Bort 1 nM or Len 1 μM, FIG. 2C
Protocol: as §1

[6] = tested on: CD64 (FcγRI) expression on THP-1 macrophages; test: CD64 (FcγRI) expression on THP-1 macrophages incubated in conditioned media from treated MM1S cells; conditions: THP-1 cells, 48 hours in conditioned media from treated MM1S cells; FIG. 3A
Protocol: as §1

[7] = tested on: CD32 (FcγRIIa/b) expression on THP-1 macrophages; test: CD32 (FcγRIIa/b) expression on THP-1 macrophages incubated in conditioned media from treated MM1S cells; conditions: THP-1 cells, 48 hours in conditioned media from treated MM1S cells; FIG. 3B
Protocol: as §1

C=C1[C@@H](C)[C@H]2[C@H](Cc3ccccc3)NC(=O)[C@]23[C@H](OC(C)=O)/C=C/[C@@](C)(O)C(=O)[C@@H](C)C/C=C/[C@H]3[C@@H]1O [Cytochalasin D]
daratumumab-mediated tumor cell clearance in the presence of cytochalasin D (MM1S cells [1]; 1 μg/ml cytochalasin D in MM1S/THP-1 co-cultures, FIG. 5): reduced

CC(C)C[C@H](NC(=O)[C@H](Cc1ccccc1)NC(=O)c1cnccn1)B(O)O [bortezomib]
daratumumab-mediated tumor cell killing by macrophages (% specific MM1S cell clearance) (MM1S cells [1]): potentiated

O=P1(N(CCCl)CCCl)NCCCO1 (centres unmarked) [cyclophosphamide]
daratumumab-mediated tumor cell killing by macrophages (% specific MM1S cell clearance) (MM1S cells [1]): potentiated | daratumumab-mediated tumor cell killing by macrophages (% specific MM1S cell clearance) (MM1S cells [1]; listed as Cyclophosphamide): augmented | mechanism of the potentiation of anti-myeloma activity of daratumumab (MM1S cells [1]; concluded from cytochalasin D inhibition, FIG. 5): dependent on macrophage mediated ADCP | proportion of tumour cell clearance accounted for by ADCP (MM1S cells [2]; BM macrophages 24 hours after treatment with cyclophosphamide, FIG. 8C): > 25% | tumour cytotoxicity by macrophages in co-culture of PB or BM-derived macrophages and multiple myeloma cells (MM1S cells [2]; patient macrophages 24 hours after treatment vs prior to treatment): augmented | CD47 surface expression (MFI) on plasma cells, bone marrow ([3]; BM, n=3, P=0.0555, FIG. 6B): decreased | CD47 surface expression (MFI) on plasma cells, peripheral blood ([3]; PB, n=3, cyclophosphamide 150-300 mg/m^2, FIG. 6A): decreased | mean fluorescence intensity (MFI) of cell surface CD38 expression [4]: induced | mean fluorescence intensity (MFI) of cell surface CD47 expression [5]: reduced | MFI of cell surface CD64 (FcγRI) expression [6]: induced | MFI of cell surface CD32 (FcγRIIa/b) expression [7]: induced

Nc1cccc2c1CN(C1CCC(=O)NC1=O)C2=O (centres unmarked) [lenalidomide]
daratumumab-mediated tumor cell killing by macrophages (% specific MM1S cell clearance) (MM1S cells [1]): potentiated | daratumumab-mediated tumor cell killing by macrophages (% specific MM1S cell clearance) (MM1S cells [1]; listed as lenalodomide): augmented

daratumumab
proportion of tumour cell clearance accounted for by ADCP (MM1S cells [2]; BM macrophages prior to treatment, FIG. 8C): > 15% | difference between Dara and Isotype within the ADCP assay (MM1S cells [2]; patient had received Daratumumab 16 mg/kg infusion, FIG. 8C): minimal difference

Source: patent US20180117150A1, “Combination Therapies for CD38-Positive Hematological Malignances with ANTI-CD38 Antibodies and Cyclophosphamide” (Janssen Biotech, Inc., priority 2016, published 2018)
